PubChem BioAssay AID336 (DTP/NCI, 2004)
Where “and” joins values, the source holds several entries; their conditions need not be identical. Identical values can stand only once. Inconclusive results and toxic doses are left out.

Test system: BDF1 mice, P388/VCR leukemia ip, median survival T/C
Experiment: NCI In Vivo Anticancer Drug Screen. Data for tumor model P388 Leukemia resistant to Vincristine; NSC 67574 (intraperitoneal) in B6D2F1 (BDF1) mice
Conditions: endpoint: median survival time, higher = longer survival
Protocol: The antitumor activity of compounds was measured in mice bearing transplantable tumors. Survival or tumor size were measured and the results are expressed as the measurement made in the treated group (T) divided by the measurement made in the vehicle treated control group (C). The tumor model used in this assay is P388 Leukemia resistant to Vincristine; NSC 67574 (intraperitoneal) in B6D2F1 (BDF1) mice

[1] = dose: 12.0 mg/kg/injection, schedule: Q01DX010 (ip), vehicle: saline
[2] = dose: 40.0 mg/kg/injection, schedule: Q01DX010 (ip), vehicle: saline
[3] = dose: 1.5 mg/kg/injection, schedule: Q01DX010 (ip), vehicle: saline
[4] = dose: 3.0 mg/kg/injection, schedule: Q01DX010 (ip), vehicle: saline
[5] = dose: 6.0 mg/kg/injection, schedule: Q01DX010 (ip), vehicle: saline
[6] = dose: 60.0 mg/kg/injection, schedule: Q01DX010 (ip), vehicle: saline
[7] = dose: 20.0 mg/kg/injection, schedule: Q01DX010 (ip), vehicle: saline
[8] = dose: 30.0 mg/kg/injection, schedule: Q01DX010 (ip), vehicle: saline
[9] = dose: 25.0 mg/kg/injection, schedule: Q01DX010 (ip), vehicle: saline
[10] = dose: 50.0 mg/kg/injection, schedule: Q01DX010 (ip), vehicle: saline
[11] = dose: 100.0 mg/kg/injection, schedule: Q01DX010 (ip), vehicle: saline

For `CC1CN=C(c2ccc(NC(=O)c3cccc(C(=O)Nc4ccc(C5=NCC(C)N5)cc4)c3)cc2)N1` (stereo unspecified), the T/C [1] was 104 % of control, the T/C (dose: 18.0 mg/kg/injection, schedule: Q01DX010 (ip), vehicle: saline) was 117 % of control and the T/C (dose: 27.0 mg/kg/injection, schedule: Q01DX010 (ip), vehicle: saline) was 104 % of control. For the same molecule, the T/C [2] was 108 % of control.

For `Nc1ncnc2[nH]ncc12`, the T/C [3] was 88 % of control, the T/C [4] was 88 % of control and the T/C [5] was 88 % of control and 103 % of control. The T/C [1] was 119 % of control.

`CCC1(O)CC2CN(CCc3c([nH]c4ccccc34)C(C(=O)OC)(c3cc4c(cc3OC)N(C)C3C(O)(C(=O)NCCSSCCNC(=O)C5(O)C(O)C6(CC)C=CCN7CCC8(c9cc(C%10(C(=O)OC)CC%11CN(CCc%12c%10[nH]c%10ccccc%12%10)CC(O)(CC)C%11)c(OC)cc9N(C)C58)C76)C(O)C5(CC)C=CCN6CCC43C65)C2)C1` (stereo unspecified) was tested, and the T/C (dose: 250.0 micrograms/kg/injection, schedule: Q04DX003 (ip), vehicle: saline) was 117 % of control, the T/C (dose: 648.0 micrograms/kg/injection, schedule: Q04DX003 (ip), vehicle: saline) was 154 % of control and the T/C (dose: 1000.0 micrograms/kg/injection, schedule: Q04DX003 (ip), vehicle: saline) was 161 % of control. For the same molecule, the T/C (dose: 2000.0 micrograms/kg/injection, schedule: Q04DX003 (ip), vehicle: saline) was 164 % of control and the T/C (dose: 3000.0 micrograms/kg/injection, schedule: Q04DX003 (ip), vehicle: saline) was 90 % of control.

With `O=NN(CCCl)C(=O)NCCCl` the T/C (dose: 6.25 mg/kg/injection, schedule: Q01DX010 (ip), vehicle: saline) was 300 % of control, the T/C (dose: 12.5 mg/kg/injection, schedule: Q01DX010 (ip), vehicle: saline) was 188 % of control and 300 % of control and the T/C (dose: 13.0 mg/kg/injection, schedule: Q01DX001 (ip), vehicle: saline) was 151 % of control. The T/C (dose: 21.6 mg/kg/injection, schedule: Q01DX001 (ip), vehicle: saline) was 164 % of control and the T/C (dose: 36.0 mg/kg/injection, schedule: Q01DX001 (ip), vehicle: saline) was 212 % of control.

For `O=C(Nc1ccc(C2=NCCN2)cc1)Nc1cccc(NC(=O)Nc2ccc(C3=NCCN3)cc2)c1`, the T/C [6] was 179 % of control and 183 % of control, the T/C (dose: 120.0 mg/kg/injection, schedule: Q01DX010 (ip), vehicle: saline) was 241 % of control and 279 % of control and the T/C (dose: 480.0 mg/kg/injection, schedule: Q01DX010 (ip), vehicle: saline) was 108 % of control and 116 % of control.

In the case of `O=C(Nc1ccc(C2=NCCCN2)cc1)c1ccc(C(=O)Nc2ccc(C3=NCCCN3)cc2)cc1`, the T/C (dose: 20.0 mg/kg/injection, schedule: Q04DX003 (ip), vehicle: Klucel (hydroxypropylcellulose) (HPC)) is reported as 158 % of control and the T/C (dose: 33.3 mg/kg/injection, schedule: Q04DX003 (ip), vehicle: Klucel (hydroxypropylcellulose) (HPC)) is reported as 101 % of control.

With `CC(=O)c1cccc(NC2C(N)C(NC(=O)N(C)C)(C(C)O)C(C)(O)C2(O)COC(=O)c2c(C)cccc2O)c1` (stereo unspecified) the T/C (dose: 5.4 mg/kg/injection, schedule: Q04DX003 (ip), vehicle: alkali diluted with saline) was 98 % of control, the T/C (dose: 9.0 mg/kg/injection, schedule: Q04DX003 (ip), vehicle: alkali diluted with saline) was 98 % of control and the T/C (dose: 15.0 mg/kg/injection, schedule: Q04DX003 (ip), vehicle: alkali diluted with saline) was 100 % of control.

In the case of `O=C(Nc1cccc(NC(=O)Nc2cccc(C3=NCCN3)c2)c1)Nc1cccc(C2=NCCN2)c1`, the T/C [2] is reported as 154 % of control and the T/C (dose: 90.0 mg/kg/injection, schedule: Q01DX010 (ip), vehicle: saline) is reported as 118 % of control.

`COC(=O)C[C@](O)(CCCC(C)(C)O)C(=O)O[C@@H]1C(OC)=C[C@]23CCCN2CCc2cc4c(cc2[C@H]13)OCO4` was tested, and the T/C (dose: 0.72 mg/kg/injection, schedule: Q04DX003 (ip), vehicle: acid diluted with saline) was 100 % of control, the T/C (dose: 1.2 mg/kg/injection, schedule: Q04DX003 (ip), vehicle: acid diluted with saline) was 100 % of control and the T/C (dose: 2.0 mg/kg/injection, schedule: Q04DX003 (ip), vehicle: acid diluted with saline) was 98 % of control. The T/C (dose: 3.33 mg/kg/injection, schedule: Q04DX003 (ip), vehicle: acid diluted with saline) was 97 % of control.

With `CNc1nc(Nc2ccc(C3=NCCN3)cc2)nc(Nc2ccc(C3=NCCN3)cc2)n1` the T/C [7] was 116 % of control, the T/C [8] was 108 % of control and the T/C (dose: 45.0 mg/kg/injection, schedule: Q01DX010 (ip), vehicle: saline) was 91 % of control.

For `CC(=O)Nc1ccc2nc3ccc(NC(C)=O)cc3[n+](-c3ccccc3)c2c1`, the T/C [9] was 91 % of control and the T/C [10] was 87 % of control.

`COc1cc([C@@H]2c3cc4c(cc3[C@@H](OC3OC5CO[C@@H](c6cccs6)OC5C(O)C3O)[C@H]3COC(=O)[C@H]23)OCO4)cc(OC)c1O` (stereo partly specified) was tested, and the T/C (dose: 5.4 mg/kg/injection, schedule: Q04DX003 (ip), vehicle: clinical formulation) was 153 % of control and the T/C (dose: 15.0 mg/kg/injection, schedule: Q04DX003 (ip), vehicle: clinical formulation) was 172 % of control.

In the case of `N#CCSc1ncnc2nc[nH]c12`, the T/C (dose: 15.0 mg/kg/injection, schedule: Q01DX010 (ip), vehicle: saline) is reported as 96 % of control and 100 % of control, the T/C [8] is reported as 100 % of control and 103 % of control and the T/C [6] is reported as 108 % of control and 123 % of control.

With `N=C(N)c1ccc(Nc2ccc(C(=N)N)cc2)cc1` the T/C [3] was 106 % of control, the T/C [4] was 92 % of control and 106 % of control and the T/C [5] was 89 % of control and 106 % of control. For the same molecule, the T/C [1] was 92 % of control and 113 % of control.

`CC(=O)O[C@]1(C(C)=O)CC[C@H]2[C@@H]3C[C@H](C)C4=CC(=O)C=C[C@]4(C)[C@@]3(F)[C@@H](O)C[C@@]21C` was tested, and the T/C (dose: 12.5 mg/kg/injection, schedule: Q01DX010 (sc), vehicle: steriod suspending solution) was 103 % of control, the T/C (dose: 25.0 mg/kg/injection, schedule: Q01DX010 (sc), vehicle: steriod suspending solution) was 116 % of control and the T/C (dose: 50.0 mg/kg/injection, schedule: Q01DX010 (sc), vehicle: steriod suspending solution) was 110 % of control. The T/C (dose: 100.0 mg/kg/injection, schedule: Q01DX010 (sc), vehicle: steriod suspending solution) was 113 % of control.

`CC(CN1CC(=O)NC(=O)C1)N1CC(=O)NC(=O)C1` (stereo unspecified) was tested, and the T/C (dose: 108.0 mg/kg/injection, schedule: Q04DX003 (ip), vehicle: Klucel (hydroxypropylcellulose) (HPC)) was 120 % of control, the T/C (dose: 240.0 mg/kg/injection, schedule: Q04DX003 (ip), vehicle: Klucel (hydroxypropylcellulose) (HPC)) was 151 % of control and the T/C (dose: 300.0 mg/kg/injection, schedule: Q04DX003 (ip), vehicle: alkali diluted with saline) was 174 % of control. For the same molecule, the T/C (dose: 400.0 mg/kg/injection, schedule: Q04DX003 (ip), vehicle: Klucel (hydroxypropylcellulose) (HPC)) was 180 % of control and the T/C (dose: 500.0 mg/kg/injection, schedule: Q04DX003 (ip), vehicle: alkali diluted with saline) was 109 % of control.

For `c1ccc(CNc2ncnc3[nH]ncc23)cc1`, the T/C (dose: 8.0 mg/kg/injection, schedule: Q01DX010 (ip), vehicle: saline) was 92 % of control and 100 % of control, the T/C (dose: 16.0 mg/kg/injection, schedule: Q01DX010 (ip), vehicle: saline) was 88 % of control and 96 % of control and the T/C (dose: 32.0 mg/kg/injection, schedule: Q01DX010 (ip), vehicle: saline) was 100 % of control. For the same molecule, the T/C (dose: 64.0 mg/kg/injection, schedule: Q01DX010 (ip), vehicle: saline) was 92 % of control.

`CSc1ncnc2nc[nH]c12` was tested, and the T/C [9] was 104 % of control and 107 % of control, the T/C [10] was 103 % of control and 116 % of control and the T/C [11] was 112 % of control and 115 % of control. For the same molecule, the T/C (dose: 200.0 mg/kg/injection, schedule: Q01DX010 (ip), vehicle: saline) was 111 % of control and 112 % of control.

`O=C(Nc1cccc(C(=O)Nc2ccc(C3=NCCN3)cc2)c1)c1ccc(C2=NCCN2)cc1` was tested, and the T/C (dose: 54.0 mg/kg/injection, schedule: Q01DX010 (ip), vehicle: saline) was 104 % of control.

`O=C(Nc1ccc(C2=NCCN2)cc1)c1cc(Cl)cc(C(=O)Nc2ccc(C3=NCCN3)cc2)c1` was tested, and the T/C (dose: 140.0 mg/kg/injection, schedule: Q01DX010 (ip), vehicle: saline) was 100 % of control, the T/C (dose: 210.0 mg/kg/injection, schedule: Q01DX010 (ip), vehicle: saline) was 109 % of control and the T/C (dose: 315.0 mg/kg/injection, schedule: Q01DX010 (ip), vehicle: saline) was 100 % of control.

In the case of `C[n+]1ccc(Nc2ccc(NC(=O)c3ccc(Nc4cc[n+](C)c5ccc(N)cc45)cc3)cc2)cc1`, the T/C (dose: 3.24 mg/kg/injection, schedule: Q04DX003 (ip), vehicle: water) is reported as 116 % of control.

In the case of `CCN(CC)CCNc1ccc(C)c2sc3ccccc3c(=O)c12`, the T/C [10] is reported as 159 % of control and 172 % of control and the T/C [11] is reported as 100 % of control.

`O=C(Nc1ccc(C2=NCCN2)cc1)c1cc(C(=O)Nc2ccc(C3=NCCN3)cc2)cc([N+](=O)[O-])c1` was tested, and the T/C (dose: 167.0 mg/kg/injection, schedule: Q01DX010 (ip), vehicle: saline) was 95 % of control, the T/C (dose: 250.0 mg/kg/injection, schedule: Q01DX010 (ip), vehicle: saline) was 100 % of control and the T/C (dose: 375.0 mg/kg/injection, schedule: Q01DX010 (ip), vehicle: saline) was 95 % of control. The T/C (dose: 512.0 mg/kg/injection, schedule: Q01DX010 (ip), vehicle: saline) was 100 % of control.

`O=c1[nH]c(=O)n(C2CC(O)C(CO)O2)cc1F` (stereo unspecified) was tested, and the T/C [7] was 112 % of control and the T/C [2] was 154 % of control.
